Reference: ChEMBL document CHEMBL1201862, “PubChem BioAssay data set” (2004)
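Where inhibition never reached the appropriate level, the endpoint shown equals the highest concentration tested. Otherwise, values were interpolated linearly from a five-concentration, 48-hour dose response in 96-well plates. GI50 is the concentration that inhibits growth by half.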 Active and inactive are the calls of the source. No stated cut-off is given here; in the data, active = GI50 up to about 1.1 µM and inactive = higher.

Columns and labels:
Assay in all cases: growth of human tumour cells (NCI), 48 h
A549 = system: A549
CCRF-CEM = system: CCRF-CEM
COLO 205 = system: COLO 205
EKVX = system: EKVX
HCC 2998 = system: HCC 2998
HCT-15 = system: HCT-15
HOP-92 = system: HOP-92
HT-29 = system: HT-29
KM12 = system: KM12
LOX IMVI = system: LOX IMVI
MCF7 = system: MCF7
NCI-H460 = system: NCI-H460
RXF 393 = system: RXF 393
SF-295 = system: SF-295
SK-MEL-5 = system: SK-MEL-5
SK-OV-3 = system: SK-OV-3
SN12C = system: SN12C
SNB-75 = system: SNB-75
UACC-257 = system: UACC-257
UO-31 = system: UO-31

| SMILES | GI50 (A549) | GI50 (CCRF-CEM) | GI50 (COLO 205) | GI50 (EKVX) | GI50 (HCC 2998) | GI50 (HCT-15) | GI50 (HOP-92) | GI50 (HT-29) | GI50 (KM12) | GI50 (LOX IMVI) | GI50 (MCF7) | GI50 (NCI-H460) | GI50 (RXF 393) | GI50 (SF-295) | GI50 (SK-MEL-5) | GI50 (SK-OV-3) | GI50 (SN12C) | GI50 (SNB-75) | GI50 (UACC-257) | GI50 (UO-31) |
| --- | --- | --- | --- | --- | --- | --- | --- | --- | --- | --- | --- | --- | --- | --- | --- | --- | --- | --- | --- | --- |
| CSc1nc(NC2OC(CO)C(O)C(O)C2O)c(N)c(=O)[nH]1 (stereo not given) | > 100 µM (inactive) | > 100 µM (inactive) | > 100 µM (inactive) | > 100 µM (inactive) | > 100 µM (inactive) | > 100 µM | > 100 µM (inactive) | > 100 µM (inactive) | > 100 µM (inactive) | > 100 µM (inactive) | > 100 µM (inactive) | > 100 µM (inactive) | > 100 µM (inactive) | > 100 µM (inactive) | > 100 µM (inactive) | > 100 µM (inactive) | > 100 µM (inactive) | > 100 µM (inactive) | > 100 µM (inactive) | > 100 µM (inactive) |
| COc1ccc2c(c1O)-c1cc(O)cc3c1[C@@H](C2)N(C)CC3 | 77.1 µM (inactive) | 81.1 µM (inactive) | 50.7 µM (inactive) | 98.4 µM (inactive) | 73.6 µM (inactive) | 71.1 µM | 19 µM (inactive) | > 92.3 µM (inactive) | 54.8 µM (inactive) | 56.6 µM (inactive) | 61.8 µM (inactive) | 74 µM (inactive) | 55.7 µM (inactive) | 72.3 µM (inactive) | 62.2 µM (inactive) | 203 µM (inactive) | 82 µM (inactive) | 60.7 µM (inactive) | 71 µM (inactive) | 44.2 µM (inactive) |
| CC(=O)Oc1cc2c(cc1OC(C)=O)OCC(c1ccccc1)C2 (stereo not given) | 13 µM (inactive) | 4.4 µM (inactive) | 18.1 µM (inactive) | 28.3 µM (inactive) | 29.1 µM (inactive) | 13 µM | 9.23 µM (inactive) | 43.5 µM (inactive) | 25.8 µM (inactive) | 13.5 µM (inactive) | 32.5 µM (inactive) | 20.7 µM (inactive) | 14.4 µM (inactive) | 16.4 µM (inactive) | 17.3 µM (inactive) | 40.7 µM (inactive) | 26.4 µM (inactive) | 8.18 µM (inactive) | 14.1 µM (inactive) | 30.2 µM (inactive) |
| Cn1c(=O)[nH]c2nncnc2c1=O | 80 µM (inactive) | 173 µM (inactive) | 69.2 µM (inactive) | 40.5 µM (inactive) | 54 µM (inactive) | 299 µM | 21.3 µM (inactive) | 114 µM (inactive) | 23.8 µM (inactive) | 361 µM (inactive) | 212 µM (inactive) | 29.3 µM (inactive) | 19.3 µM (inactive) | 103 µM (inactive) | 92.5 µM (inactive) | 146 µM (inactive) | 148 µM (inactive) | 21 µM (inactive) | 75.3 µM (inactive) | 46 µM (inactive) |
| N/N=C1\C(OC(=O)Nc2cccc(Cl)c2)=Nc2ccccc21 | 5.92 µM (inactive) | 5.93 µM (inactive) | 6.95 µM (inactive) | 4.05 µM (inactive) | 5.71 µM (inactive) | 6.89 µM | 6.47 µM (inactive) | 6.59 µM (inactive) | 4.58 µM (inactive) | 7.83 µM (inactive) | 8.51 µM (inactive) | 6.9 µM (inactive) | 13 µM (inactive) | 2.35 µM (inactive) | 11.5 µM (inactive) | 7.43 µM (inactive) | 4.95 µM (inactive) | 6.22 µM (inactive) | 13.7 µM (inactive) | 5.32 µM (inactive) |
| CSc1nc(CO)c(CO)n1C | > 100 µM (inactive) | > 100 µM (inactive) | > 100 µM (inactive) | > 100 µM (inactive) | > 100 µM (inactive) | > 100 µM | > 100 µM (inactive) | > 100 µM (inactive) | > 100 µM (inactive) | > 100 µM (inactive) | > 100 µM (inactive) | > 100 µM (inactive) | > 100 µM (inactive) | > 100 µM (inactive) | > 100 µM (inactive) | > 100 µM (inactive) | > 100 µM (inactive) | > 100 µM (inactive) | > 100 µM (inactive) | > 100 µM (inactive) |
